Results reported in US11208478B2, “Methods of detecting and treating a tumor expressing pT346 PDK1” (The Wistar Institute of Anatomy and Biology, priority 2016, dated 2021).

Legend:
Type in all cases: cell-based, Human
mitochondrial Akt = experiment: Akt recruitment to mitochondria in hypoxia, subcellular fractions by Western blotting; conditions: PC3 cells, 17-AAG 5 μM for 6 hr, NAC 1 mM, MitoTempo 25 μM
Method: FIG. 1 illustrates mitochondrial phosphoproteome in hypoxia. A: Phosphoproteome of prostate adenocarcinoma PC3 cells in hypoxia versus normoxia. Identified phosphosites met a minimum MaxQuant localization probability of 0.75 and a score difference of 5. Fold changes were calculated from the normalized Heavy/Light SILAC ratio. Six Akt target proteins showing increased phosphorylation in hypoxia are indicated. […] B: Ingenuity pathway analysis of mitochondrial phospho- and global proteome in hypoxia. […] D: PC3 cells in normoxia (N) or hypoxia (H) were fractionated in cytosol (Cyto) or mitochondrial (Mito) extracts and analyzed by Western blotting. pAkt, phosphorylated Akt (Ser473). TCE, total cell extracts. E: PC3 cells in hypoxia (H) were exposed to reoxygenation (O2) for the indicated time intervals and analyzed by Western blotting. N, normoxia. F: The indicated subcellular fractions isolated from normoxic (N) or hypoxic (H) PC3 cells were analyzed with an antibody to the Akt consensus phosphorylation site RxRxxS/T (Akt cons Ab) by Western blotting. Mito Sup, supernatant of mitochondrial extracts after preclearing with Akt cons Ab. G: PC3 cells in normoxia (N) or hypoxia (H) were treated with vehicle (Veh) or Hsp90 small molecule inhibitor 17-AAG (5 μM for 6 hr), and cytosolic (Cyto) or mitochondrial (Mito) extracts were analyzed by Western blotting. H: PC3 cells in normoxia (N) or hypoxia (H) were treated with vehicle (Veh), the antioxidant N-acetyl cysteine (NAC, 1 mM) or mitochondria-specific ROS scavenger, MitoTempo (MT, 25 μM), and subcellular fractions were analyzed by Western blotting. See also FIG. 9.
Human prostate adenocarcinoma PC3 and DU145, glioblastoma (GBM) LN229, and breast adenocarcinoma MCF-7 or MDA-231 cells were obtained from the American Type Culture Collection (ATCC, Manassas, Va.), and maintained in culture according to the supplier's specifications. Hypoxic treatment was carried out using an enclosed chamber (BioSpherix) flushed with a nitrogen and CO2 gas. […]

PC3 cells = experiment: Cell cycle: DNA content by propidium iodide staining and flow cytometry; conditions: hypoxia, DCA 10 mM, MK2206 5 μM
Source text: FIG. 13, related to FIG. 5, illustrates additional data regarding mitochondrial Akt signaling supports tumor growth in hypoxia in vivo. A: Human intracranial GBM samples (U251 cells) grown in immunocompromised mice were harvested at the indicated time intervals after stereotactic injection, and the number of mitotic cells was quantified. HPF, high-power microscopy field (n=6-7). Mean±SEM. *, p=0.01. B: Human intracranial GBM samples as in (A) were harvested at day 20 after stereotactic injection of U251 cells in immunocompromised mice, and analyzed for expression of HIF1α, phosphorylated PDK1 (pT346 Ab) or phosphorylated PDHE1α by immunohistochemistry. H&E, hematoxylin and eosin. Yellow lines were used to delineate the tumor mass within mice brain. Scale bar, 100 μm. […] C: Quantification of mitotic cells expressing phosphorylated PDK1 (pT346 Ab) in intracranial GBM harvested from immunocompromised mice at the indicated time intervals (n=5-7). […] D: Intracranial GBM samples as in (A) were analyzed for correlation between HIF1α luciferase activity and the number of PDK1-phosphorylated mitotic cells (pT346 Ab). […], 95% C.I.=0.1-0.9; p=0.02. […] E: PC3 cells in normoxia (N) or hypoxia (H) were treated with vehicle (Veh) or small molecule antagonists of PDK1 (DCA, 10 mM) or Akt (MK2206, 5 μM) and analyzed for DNA content by propidium iodide staining and flow cytometry. […]

cleaved caspase 3 = experiment: Cleaved caspase 3 by Western blotting; conditions: PC3 cells, hypoxia; MK2206 1 μM, PX-866 10 μM
Method: FIG. 6 illustrates mitochondrial Akt regulation of stress signaling in hypoxia. A and B: PC3 cells in normoxia (N) or hypoxia (H) were treated with vehicle (Veh) or MK2206 (1 μM) (A) or transduced with pLKO or PDK1-directed shRNA (B) and analyzed for ROS production by CELLROX Green staining and flow cytometry. Upper panels, representative tracings. Bottom panels, quantification of ROS production under the various conditions tested (n=2). Mean±SD for both datasets. *, p=0.01-0.02; **, p=0.004; ns, not significant. C: The experimental conditions are as in (A) and treated cells were analyzed for cell viability by direct cell counting relative to control (n=3). Mean±SEM. ***, p<0.0001. D: PC3 cells in normoxia (N) or hypoxia (H) were incubated with vehicle (Veh) or small molecule inhibitors of Akt (MK2206, 1 μM) or PI3K (PX-866, 10 μM) and analyzed by Western blotting. E: PC3 cells stably silenced for PDK1 were reconstituted with vector, WT PDK1 or T346A PDK1 mutant and analyzed for cell viability by direct cell counting relative to control (n=3). Mean±SEM. ***, p=0.0002. F and G: PC3 cells in normoxia (N) or hypoxia (H) were transduced with pLKO or PDK1-directed shRNA (F) or control siRNA (Ctrl) or Akt1- or Akt2-directed siRNA (G), and analyzed by Western blotting. […] For all panels, data were analyzed using the two-sided unpaired Student's t test. […]

**Q.** How did the “accumulation / recruitment of Akt to mitochondria” value (“accumulation / recruitment of Akt” for short) (mitochondrial Akt) turn out when `C=CCNC1=C2C[C@@H](C)C[C@H](OC)[C@H](O)[C@@H](C)/C=C(\C)[C@H](OC(N)=O)[C@@H](OC)/C=C\C=C(/C)C(=O)NC(=CC1=O)C2=O` [17-AAG, 17-allylaminogeldanamycin] was run?
**A.** The value was “prevented the accumulation of mitochondrial Akt”.

**Q.** How did the S-phase progression (PC3 cells) turn out when `O=C([O-])C(Cl)Cl.[Na+]` [DCA, sodium dichloroacetate] was run?
**A.** Its S-phase progression is “suppressed S-phase progression”.

**Q.** What about the “population of tumor cells in G1/sub-G1 phase” value (PC3 cells) of the same molecule?
**A.** Its value is “increased”.

**Q.** `CC1(C)CC(NC(=O)C[P+](c2ccccc2)(c2ccccc2)c2ccccc2)CC(C)(C)N1[O]` [MitoTempo] was tested. Which “accumulation / recruitment of Akt” value (mitochondrial Akt) did it give?
**A.** Its value is “inhibited Akt recruitment to mitochondria”.

**Q.** Which “accumulation / recruitment of Akt” value (mitochondrial Akt) does the source give for `CC(=O)N[C@@H](CS)C(=O)O` [NAC, N-acetyl cysteine] here?
**A.** Its value is “no effect”.

**Q.** Which “cleaved caspase 3 (marker of apoptosis)” value (cleaved caspase 3) does the source give for `C=CCN(/C=C1/C(=O)O[C@H](COC)[C@@]2(C)C1=C(O)C(=O)C1=C2[C@H](OC(C)=O)C[C@]2(C)C(=O)CC[C@@H]12)CC=C` [PX-866] here?
**A.** Its value is “did not result in caspase activation”.
